The record followed here is ChEMBL document CHEMBL1828557, “Biophysical and physicochemical methods differentiate highly ligand-efficient human D-amino acid oxidase inhibitors” (Eur J Med Chem, 2011).

In general, clearance refers to a measure of how efficiently the substance is removed, as volume per time. A higher clearance goes with a high capacity for elimination. As a reminder, the pKa is the pH at which an ionisable group is half protonated. The low end stands for a group that gives up its proton readily, the high end for a group that holds its proton tightly. One may read the Tmax as the time at which the peak concentration occurs. What is called bioavailability is the share of a dose that reaches the circulation, judged against a reference dose that is usually intravenous. A higher bioavailability goes with much systemic uptake. For orientation: logP means the decadic logarithm of the partition coefficient of the neutral form, usually between octanol and water. High values mean a more lipophilic compound, low ones a more hydrophilic compound. By IC50 is commonly meant the concentration needed to halve the response being measured. In general, Cmax refers to the maximum level reached in the sampled fluid or tissue. As usually defined, the Vd is the apparent volume that relates the amount in the body to the concentration in plasma or blood. The low end stands for confinement near the circulation, the high end for extensive tissue distribution. Broadly, the microsomal CLint is a measure of how fast metabolising enzymes remove a compound, apart from limits set by blood flow. Lower therefore signals greater metabolic stability.

Values after ≈ are worked out from the molar mass of the structure shown. Where only a bound is given, the exact number is not on record here.

One data set concerns the target D-amino-acid oxidase (Homo sapiens, UniProt P14920).
A short description of data set [1]: Plasma clearance in Wistar rat plasma at 1 mg/kg, iv. Details: dose 1 mg/kg, route intravenous. The class given is ADME, organism-based.
Data set [2] can be described thus: Kinetic solubility of the compound in 0.01 M phosphate buffered saline at pH 7.4 assessed as maximum solubility after 2 hrs. The class given is physicochemical. As to conditions: read-out: Kinetic_solubility.
Data set [3] is described as follows: Thermodynamic solubility of the compound in phosphate buffer at pH 7.4 after 24 hrs by HPLC analysis. The class given is physicochemical. The settings on record: read-out: Therm_solubility.
Data set [4] is described as follows: Dissociation constant, pKa of the compound by dip probe absorption spectroscopy technique. The data set is classed as physicochemical.
Data set [5] is described as follows: Tmax in Swiss mouse brain at 10 mg/kg, po. Set-up: dose 10 mg/kg, route oral. The data set is classed as ADME, organism-based.
Data set [6] in a line: Kinetic solubility of the compound in 0.01 M phosphate buffered saline at pH 7.4 assessed as minimum solubility after 2 hrs. As to conditions: read-out: Kinetic_solubility. The class given is physicochemical.
Data set [7] in a line: Oral bioavailability (0 to last) in Swiss mouse plasma at 10 mg/kg. The data set is classed as ADME, organism-based.
A short description of data set [8]: Octanol-water partition coefficient, log P of the neutral compound by pH-metric method. The class given is physicochemical.
The next data set concerns the target T1, D-aspartate oxidase (Bos taurus, UniProt P31228).
T1 sequence (P31228 whole entry): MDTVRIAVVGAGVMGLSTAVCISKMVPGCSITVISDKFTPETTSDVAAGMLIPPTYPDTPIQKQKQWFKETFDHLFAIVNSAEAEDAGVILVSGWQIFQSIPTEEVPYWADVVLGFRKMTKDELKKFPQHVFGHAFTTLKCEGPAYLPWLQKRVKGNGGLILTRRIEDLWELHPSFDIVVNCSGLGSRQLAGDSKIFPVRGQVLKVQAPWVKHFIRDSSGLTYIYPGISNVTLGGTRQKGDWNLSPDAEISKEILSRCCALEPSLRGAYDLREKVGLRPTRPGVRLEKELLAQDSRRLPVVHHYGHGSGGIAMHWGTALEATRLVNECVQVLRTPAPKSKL
The data set is described as follows: Inhibition of bovine recombinant DASPO expressed in Escherichia coli preincubated for 15 mins by fluorescence assay.

A short description of data set [9]: Plasma clearance in Swiss mouse plasma at 1 mg/kg, iv. Details: dose 1 mg/kg, route intravenous. The class given is ADME, organism-based.
The nature of data set [10]: Ratio of drug level (0 to last) in brain to plasma in Wistar rat at 10 mg/kg, po. The settings on record: brain and plasma, read-out: BPR. The class given is ADME, organism-based. Details: dose 10 mg/kg, route oral.
In data set [11] the test system is Brain. Nature of the data set: AUC (0 to last) in Swiss mouse brain at 10 mg/kg, po. The class given is ADME, organism-based. Set-up: time 0 - last, dose 10 mg/kg, route oral. The settings on record: in vivo.
A short description of data set [12]: Terminal half life in Wistar rat brain at 10 mg/kg, po. The class given is ADME, organism-based. Details: dose 10 mg/kg, route oral. As to conditions: read-out: beta t1/2 (converted).
Data set [13] is described as follows: Cmax in Swiss mouse brain at 10 mg/kg, po. The data set is classed as ADME, organism-based. Details: dose 10 mg/kg, route oral.
The nature of data set [14]: Volume of distribution in Wistar rat plasma at 1 mg/kg, iv. The class given is ADME, organism-based. Details: dose 1 mg/kg, route intravenous.
For data set [15], the system named is Brain. The data set is described as follows: AUC (0 to last) in Wistar rat brain at 10 mg/kg, po. The data set is classed as ADME, organism-based. Set-up: dose 10 mg/kg, route oral, time 0 - last. The settings on record: in vivo.
The nature of data set [16]: Tmax in Wistar rat brain at 10 mg/kg, po. The data set is classed as ADME, organism-based. Details: dose 10 mg/kg, route oral.
Data set [17] is described as follows: Oral bioavailability (0 to last) in Wistar rat plasma at 10 mg/kg. The class given is ADME, organism-based.
Data set [18] can be described thus: Cmax in Wistar rat brain at 10 mg/kg, po. The class given is ADME, organism-based. Details: dose 10 mg/kg, route oral.
Data set [19] is described as follows: Ratio of drug level (0 to last) in brain to plasma in Swiss mouse at 10 mg/kg, po. The class given is ADME, organism-based. Details: dose 10 mg/kg, route oral. The settings on record: brain and plasma, read-out: BPR.
Data set [20] has as its target Voltage-gated inwardly rectifying potassium channel KCNH2 (Homo sapiens, UniProt Q12809). Nature of the data set: Inhibition of human ERG expressed in HEK293 cells by whole cell voltage patch clamp technique. The data set is classed as cell-based.
A short description of data set [21]: Terminal half life in Swiss mouse brain at 10 mg/kg, po. The data set is classed as ADME, organism-based. Set-up: dose 10 mg/kg, route oral. The settings on record: read-out: beta t1/2 (converted).
A short description of data set [22]: Volume of distribution in Swiss mouse plasma at 1 mg/kg, iv. The data set is classed as ADME, organism-based. Set-up: dose 1 mg/kg, route intravenous.
The nature of data set [23]: Intrinsic clearance in human liver microsomes. The data set is classed as ADME, Microsome. (In general: Liver microsomes are a subcellular fraction often used to study metabolism.)

Sequence of D-amino-acid oxidase (P14920 whole entry, looked up): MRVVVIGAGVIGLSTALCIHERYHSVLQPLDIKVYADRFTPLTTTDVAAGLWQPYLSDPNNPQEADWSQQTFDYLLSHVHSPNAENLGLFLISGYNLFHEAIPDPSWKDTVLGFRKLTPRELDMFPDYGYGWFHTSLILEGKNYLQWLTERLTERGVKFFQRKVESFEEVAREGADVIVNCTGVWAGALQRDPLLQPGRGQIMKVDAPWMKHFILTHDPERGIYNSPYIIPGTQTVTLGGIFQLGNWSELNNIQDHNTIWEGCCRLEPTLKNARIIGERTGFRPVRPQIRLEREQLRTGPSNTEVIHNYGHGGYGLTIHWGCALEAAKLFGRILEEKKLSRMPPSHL
Sequence of Voltage-gated inwardly rectifying potassium channel KCNH2 (Q12809 whole entry): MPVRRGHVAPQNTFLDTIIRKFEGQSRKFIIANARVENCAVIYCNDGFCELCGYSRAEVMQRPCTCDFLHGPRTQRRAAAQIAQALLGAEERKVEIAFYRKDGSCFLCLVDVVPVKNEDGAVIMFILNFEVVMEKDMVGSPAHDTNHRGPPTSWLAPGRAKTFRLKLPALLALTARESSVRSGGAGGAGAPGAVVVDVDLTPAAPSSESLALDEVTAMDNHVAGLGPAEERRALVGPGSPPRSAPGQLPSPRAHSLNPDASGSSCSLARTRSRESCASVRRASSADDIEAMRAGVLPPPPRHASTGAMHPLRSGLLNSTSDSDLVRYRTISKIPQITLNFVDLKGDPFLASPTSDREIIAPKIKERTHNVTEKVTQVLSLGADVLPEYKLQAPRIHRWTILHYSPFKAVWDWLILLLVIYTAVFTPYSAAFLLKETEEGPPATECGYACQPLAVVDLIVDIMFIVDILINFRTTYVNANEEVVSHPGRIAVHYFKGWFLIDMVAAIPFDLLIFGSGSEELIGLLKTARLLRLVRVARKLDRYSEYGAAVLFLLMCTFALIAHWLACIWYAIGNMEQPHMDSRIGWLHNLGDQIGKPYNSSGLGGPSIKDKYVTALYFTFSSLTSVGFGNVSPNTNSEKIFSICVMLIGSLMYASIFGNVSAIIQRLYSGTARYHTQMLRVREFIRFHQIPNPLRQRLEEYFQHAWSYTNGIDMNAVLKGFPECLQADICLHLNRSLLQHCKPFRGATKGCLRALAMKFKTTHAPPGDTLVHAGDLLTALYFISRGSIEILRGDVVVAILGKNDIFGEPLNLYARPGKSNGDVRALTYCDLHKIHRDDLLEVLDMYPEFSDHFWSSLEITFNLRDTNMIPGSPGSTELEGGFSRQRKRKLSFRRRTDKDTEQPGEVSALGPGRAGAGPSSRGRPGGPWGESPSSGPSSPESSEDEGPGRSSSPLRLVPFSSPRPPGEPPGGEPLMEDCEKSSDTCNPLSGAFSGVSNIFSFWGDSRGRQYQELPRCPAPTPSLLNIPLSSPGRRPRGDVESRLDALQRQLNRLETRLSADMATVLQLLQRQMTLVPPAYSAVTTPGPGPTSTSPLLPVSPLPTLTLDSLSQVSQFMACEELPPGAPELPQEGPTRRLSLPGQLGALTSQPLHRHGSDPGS

Compound `O=C(O)c1cc2occc2[nH]1` returned a T1/2 at D-amino-acid oxidase of 10 min. In addition, the clearance stood at 4 mL/min/kg in data set [1] and 15 mL/min/kg in [9]. The solubility kinetic at 2 h in data set [2] was > 100 µM; in [6] it was 100 µM (≈ 15.1 µg/mL). For the same compound, in data set [3], the solubility thermodynamic at 24 h was determined as 428 µM (≈ 64.7 µg/mL). The compound also returned a pKa in data set [4] of 4.09. Also, the Tmax in [5] was 15 min; in [16], 30 min. Also, the bioavailability in [7] came to 42%; in data set [17] it was 52%. The compound also yielded a logP in data set [8] of 1.56. In addition, the IC50 (at D-aspartate oxidase; in [20]) was > 10 µM in each case. Also, the Kp in [10] and in data set [19] was 0.08 in each case. The figures for the AUClast with Brain [11] and with Brain [15] were 371 ng·h/mL and 1520 ng·h/mL, respectively. Moreover, the results for the half-life in [12] and in [21] were 120 min and 30 min, respectively. In addition, the Cmax in [13] was 487 ng/mL; in [18] it was 889 ng/mL. The Vd was determined as 0.4 L/kg in data set [14] and 0.8 L/kg in data set [22].
Consider `O=c1[nH]c2cccc(Cl)c2cc1O`, for which the T1/2 on D-amino-acid oxidase is > 120 min. The clearance stood at 30 mL/min/kg in [1] and 44 mL/min/kg in data set [9]. In addition, the solubility kinetic at 2 h in [2] is 55 µM (≈ 10.8 µg/mL); in data set [6] it was 17 µM (≈ 3.33 µg/mL). Further, the solubility thermodynamic at 24 h in data set [3] came to 31 µM (≈ 6.06 µg/mL). Besides, the pKa in data set [4] worked out at 7.6. For the same compound, in data set [5], the time to peak (Tmax) was found to be 15 min. Further, the bioavailability in data set [7] came out at 0.65%; in data set [17], 1.4%. The compound further showed a lipophilicity (logP) in [8] of 2.57. Besides, the 50% inhibitory concentration (IC50) on D-aspartate oxidase was > 10 µM. For the same compound, the peak level in data set [13] (Cmax) was 11.7 ng/mL. The Vd in data set [14] and in data set [22] was 0.3 L/kg throughout. Besides, the microsomal CLint in data set [23] is 308 µL/min/mg.
`O=c1[nH]c2ccc(F)c(Cl)c2cc1O`: the clearance in [1] was 28 mL/min/kg; in [9], 45 mL/min/kg. Moreover, the solubility kinetic at 2 h in data set [2] came to 65 µM (≈ 13.9 µg/mL); in data set [6], 3 µM (≈ 0.641 µg/mL). In data set [3], the solubility thermodynamic at 24 h came out at 71 µM (≈ 15.2 µg/mL). The same compound returned a pKa in [4] of 7.33. Further, the time to peak (Tmax) in [5] was 15 min; in data set [16], 30 min. The results for the bioavailability in data set [7] and in data set [17] were 3% and 2%, respectively. This compound had a logP in data set [8] of 2.7. For the same compound, at D-aspartate oxidase, the IC50 is > 10 µM. For the same compound, the Cmax in data set [13] amounted to 12.1 ng/mL; in [18], 17.9 ng/mL. The distribution volume (Vd) in [14] amounted to 0.3 L/kg; in data set [22], 0.5 L/kg. This compound also came in with a microsomal CLint in [23] of 183 µL/min/mg.
